Data reported in patent US9512111B2, “N-sulfonylated tetrahydroquinolines and related bicyclic compounds for inhibition of RORγ activity and the treatment of disease” (Lycera Corporation, priority 2010, dated 2016).

biological target: T1, RORγ-LBD (Homo sapiens, UniProt P51449); assay: RORγ-Ligand Binding Domain TR-FRET Assay; type: biochemical; conditions: Table 8, indazoles
T1 construct: HIS-tagged RORγ-LBD was recombinantly expressed in SF9 cells; made in house; host or cells: SF9 cells (baculovirus); unpurified lysate
T1 sequence (P51449 269-508 limits assumed): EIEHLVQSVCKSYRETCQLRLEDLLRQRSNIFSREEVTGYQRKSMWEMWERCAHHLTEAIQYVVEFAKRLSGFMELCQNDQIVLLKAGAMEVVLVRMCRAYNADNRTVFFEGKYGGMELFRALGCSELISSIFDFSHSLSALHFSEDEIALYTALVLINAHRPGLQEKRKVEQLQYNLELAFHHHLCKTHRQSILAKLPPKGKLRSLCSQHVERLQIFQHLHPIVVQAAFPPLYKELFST
Experimental: HIS-tagged RORγ-LBD was recombinantly expressed in SF9 cells using a baculovirus expression system. The protein was not purified. Cells were lysed and the lysate was used as a source for RORγ-LBD for the assay. A 1:80 dilution of RORγ-LBD lysate in assay buffer (25 mM HEPES pH 7.0, 100 mM NaCl, 0.01% Tween, 0.1% BSA) was prepared and 5 μL was added to each well (RORγ-LBD final concentration ˜10 nM). Control wells received lysate from SF9 cells not expressing RORγ-LBD.
Compounds to be tested were diluted to 100× final test concentration in DMSO and further diluted to 4× final test concentration using assay buffer to provide the test compound mixture. An aliquot (5 μL) of the test compound mixture was added to each well.
A 4× stock of biotinylated-LXXLL peptide from SRC1-2 (Biotin-[…]) was prepared in assay buffer and a 5 μL aliquot added to each well (450 nM final concentration). A 4× solution of europium tagged anti-HIS antibody (2 nM final concentration) and APC conjugated streptavidin (60 nM final concentration) were prepared and a 5 μL aliquot added to each well.
The final assay mixture was incubated for 4 hours to overnight, and the fluorescence signal was measured on an Envision plate reader: (Excitation filter=340 nm; APC emission=665 nm; Europium emission=615 nm; dichroic mirror=D400/D630; delay time=100 μs, integration time=200 μs).
IC50 values for test compounds were calculated from the quotient of the fluorescence signal at 665 nm divided by the fluorescence signal at 615 nm using GraphPad Prism software.

| IC50 | Structure (SMILES) |
| --- | --- |
| < 15 µM | CC(C)(C)c1cccc(S(=O)(=O)n2ncc3ccc(NC(=O)c4c(F)cccc4Cl)cc32)c1 [Compound V-106] |
| < 15 µM | O=C(Nc1ccc2cnn(S(=O)(=O)C3CC3c3ccccc3)c2c1)c1c(F)cccc1Cl (stereo not shown) [Compound V-105] |
| < 15 µM | O=C(Nc1ccc2cnn(S(=O)(=O)c3cccc(C(F)(F)F)c3)c2c1)c1c(F)cccc1C(F)(F)F [Compound V-51] |
| < 15 µM | COc1cccc(S(=O)(=O)n2ncc3ccc(NC(=O)Cc4cnc(C)s4)cc32)c1 [Compound V-7] |
| < 15 µM | O=C(Nc1ccc2cnn(S(=O)(=O)c3cccc(OC(F)F)c3)c2c1)c1c(Cl)cccc1C(F)(F)F [Compound V-35] |
| < 15 µM | COC(=O)c1ccccc1S(=O)(=O)n1ncc2ccc(NC(=O)c3c(F)cccc3Cl)cc21 [Compound V-142] |
| < 15 µM | N#Cc1cccc(S(=O)(=O)n2ncc3ccc(NC(=O)c4c(F)cccc4Cl)cc32)c1 [Compound V-121] |
| < 15 µM | Cc1nn(C(F)F)cc1S(=O)(=O)n1ncc2ccc(NC(=O)Cc3ccc(F)cc3)cc21 [Compound V-22] |
| < 15 µM | O=C(Nc1ccc2cnn(S(=O)(=O)c3c(F)cccc3F)c2c1)c1c(F)cccc1Cl [Compound V-128] |
| < 15 µM | O=C(Nc1ccc2cnn(S(=O)(=O)c3ccccc3)c2c1)c1c(F)cccc1Cl [Compound V-159] |
| < 15 µM | Cc1cccc(S(=O)(=O)n2ncc3ccc(NC(=O)Cc4ccc(F)c(F)c4)cc32)c1 [Compound V-20] |
| < 15 µM | COC(=O)c1sccc1S(=O)(=O)n1ncc2ccc(NC(=O)c3c(F)cccc3Cl)cc21 [Compound V-144] |
| < 15 µM | COC(=O)c1cc(C)c(S(=O)(=O)n2ncc3ccc(NC(=O)c4c(F)cccc4Cl)cc32)s1 [Compound V-152] |
| < 15 µM | Cc1cccc(S(=O)(=O)n2nc(Br)c3ccc(NC(=O)c4c(F)cccc4Cl)cc32)c1 [Compound V-52] |
| < 15 µM | CNC(=O)Nc1ccc(S(=O)(=O)n2ncc3ccc(NC(=O)c4c(F)cccc4Cl)cc32)cc1Cl [Compound V-133] |
| < 15 µM | Cc1nn(C(F)F)cc1S(=O)(=O)n1ncc2ccc(NC(=O)c3c(F)cccc3Cl)cc21 [Compound V-104] |
| < 15 µM | CCCc1ccc(S(=O)(=O)n2ncc3ccc(NC(=O)c4c(F)cccc4Cl)cc32)cc1 [Compound V-115] |
| < 15 µM | Cc1ccc(C)c(S(=O)(=O)n2ncc3ccc(NC(=O)c4c(F)cccc4Cl)cc32)c1 [Compound V-117] |
| < 15 µM | CC(=O)c1cccc(S(=O)(=O)n2ncc3ccc(NC(=O)Cc4ccc(Cl)cc4)cc32)c1 [Compound V-30] |
| < 15 µM | COc1ccc(C)cc1S(=O)(=O)n1ncc2ccc(NC(=O)c3c(F)cccc3Cl)cc21 [Compound V-78] |
| < 15 µM | COc1cccc(S(=O)(=O)n2ncc3ccc(NC(=O)c4c(F)cccc4Cl)cc32)c1 [Compound V-148] |
| < 15 µM | COc1cccc(S(=O)(=O)n2ncc3ccc(NC(=O)c4c(Cl)cccc4C(F)(F)F)cc32)c1 [Compound V-40] |
| < 15 µM | Cc1ccc(S(=O)(=O)n2ncc3ccc(NC(=O)c4c(F)cccc4Cl)cc32)cc1F [Compound V-125] |
| < 15 µM | COc1cccc(S(=O)(=O)n2ncc3ccc(NC(=O)c4c(F)cccc4F)cc32)c1 [Compound V-62] |

| IC50 | Structure (SMILES) |
| --- | --- |
| < 15 µM | Cc1nn(C(F)F)cc1S(=O)(=O)n1ncc2ccc(NC(=O)c3c(Cl)cccc3Cl)cc21 [Compound V-65] |
| < 15 µM | O=C(Cc1ccc(F)c(F)c1)Nc1ccc2cnn(S(=O)(=O)c3cccc(OC(F)F)c3)c2c1 [Compound V-18] |
| < 15 µM | COc1cccc(S(=O)(=O)n2ncc3ccc(NC(=O)c4c(Cl)cccc4Cl)cc32)c1 [Compound V-73] |
| < 15 µM | O=C(Nc1ccc2cnn(S(=O)(=O)c3cccc(OC(F)F)c3)c2c1)c1c(F)cccc1Cl [Compound V-85] |
| < 15 µM | Cc1nc(C)c(S(=O)(=O)n2ncc3ccc(NC(=O)c4c(F)cccc4Cl)cc32)s1 [Compound V-89] |
| < 15 µM | CCc1ccc(S(=O)(=O)n2ncc3ccc(NC(=O)c4c(F)cccc4Cl)cc32)cc1 [Compound V-116] |
| < 15 µM | O=C(Nc1ccc2cnn(S(=O)(=O)c3ccc(I)cc3)c2c1)c1c(F)cccc1Cl [Compound V-131] |
| < 15 µM | Cc1ccccc1S(=O)(=O)n1ncc2ccc(NC(=O)c3c(F)cccc3Cl)cc21 [Compound V-129] |
| < 15 µM | O=C(Nc1ccc2cnn(S(=O)(=O)Cc3cc(Cl)cc(Cl)c3)c2c1)c1c(F)cccc1Cl [Compound V-138] |
| < 15 µM | O=C(Nc1ccc2cnn(S(=O)(=O)c3cccc(OC(F)(F)F)c3)c2c1)c1c(Cl)cccc1Cl [Compound V-74] |
| < 15 µM | Cn1cnc(S(=O)(=O)n2ncc3ccc(NC(=O)c4c(F)cccc4Cl)cc32)c1 [Compound V-147] |
| < 15 µM | COc1cccc(S(=O)(=O)n2ncc3ccc(NC(=O)c4c(F)cccc4C(F)(F)F)cc32)c1 [Compound V-49] |
| < 15 µM | O=C(Nc1ccc2cnn(S(=O)(=O)c3ccc(Cl)c(F)c3)c2c1)c1c(F)cccc1Cl [Compound V-80] |
| < 15 µM | O=C(Nc1ccc2c(C(O)CO)nn(S(=O)(=O)c3cccc(C(F)(F)F)c3)c2c1)c1c(F)cccc1Cl (stereo not shown) [Compound 10, 2-Chloro-N-[3-(1,2-dihydroxyethyl)-1-(3-trifluoromethylbenzenesulfonyl)-1H-indazol-6-yl]-6-fluorobenzamide] |
| < 15 µM | CC(C)c1ccc(S(=O)(=O)n2ncc3ccc(NC(=O)c4c(F)cccc4Cl)cc32)cc1 [Compound V-120] |
| < 15 µM | COc1cccc(S(=O)(=O)n2ncc3ccc(NC(=O)Cc4ccc(Cl)cc4)cc32)c1 [Compound V-32] |
| < 15 µM | Cc1c(Cl)cccc1S(=O)(=O)n1ncc2ccc(NC(=O)c3c(F)cccc3Cl)cc21 [Compound V-145] |
| < 15 µM | Cc1cccc(S(=O)(=O)n2ncc3ccc(NC(=O)c4c(Cl)cccc4C(F)(F)F)cc32)c1 [Compound V-37] |
| < 15 µM | Cc1cccc(S(=O)(=O)n2nc(-c3ccc(C(=O)O)cc3)c3ccc(NC(=O)c4c(F)cccc4Cl)cc32)c1 [Compound V-10] |
| < 15 µM | O=C(Nc1ccc2cnn(S(=O)(=O)Cc3ccc(Cl)c(Cl)c3)c2c1)c1c(F)cccc1Cl [Compound V-139] |
| < 15 µM | CNC(=O)Nc1ccc(S(=O)(=O)n2ncc3ccc(NC(=O)c4c(F)cccc4Cl)cc32)cc1 [Compound V-135] |
| < 15 µM | Cc1cccc(S(=O)(=O)n2ncc3ccc(NC(=O)Cc4cnc(C)s4)cc32)c1 [Compound V-5] |
| < 15 µM | Cn1cc(S(=O)(=O)n2ncc3ccc(NC(=O)c4c(F)cccc4Cl)cc32)cn1 [Compound V-112] |

same assay, conditions: benzoxazines, Table 9

| IC50 | Structure (SMILES) |
| --- | --- |
| < 15 µM | N#Cc1cccc(S(=O)(=O)N2C[C@@H](CO)Oc3ccc(NC(=O)c4c(F)cccc4C(F)(F)F)cc32)c1 [VI-57] |
| < 15 µM | N#CC[C@H]1CN(S(=O)(=O)c2ccc(F)cc2)c2cc(NC(=O)c3c(F)cccc3Cl)ccc2O1 [Compound 19, (S)-2-Chloro-N-(2-(cyanomethyl)-4-((4-fluorophenyl)sulfonyl)-3,4-dihydro-2H-benzo[b][1,4]oxazin-6-yl)-6-fluorobenzamide] |
| < 15 µM | O=C(Cc1ccc(F)cc1)Nc1ccc2c(c1)N(S(=O)(=O)c1ccc(Cl)cc1)C[C@H](CO)O2 [VI-68] |
| > 15 µM | COCC1CN(S(=O)(=O)c2ccc(F)c(F)c2)c2cc(NC(=O)Cc3ccc(Cl)cc3)ccc2O1 (stereo not shown) [VI-69] |
| < 15 µM | Cc1cccc(Cl)c1C(=O)Nc1ccc2c(c1)N(S(=O)(=O)c1ccc(F)cc1)C[C@H](C)O2 [VI-21] |
| < 15 µM | C[C@H]1CN(S(=O)(=O)c2ccc(F)cc2)c2cc(NC(=O)c3c(Cl)cccc3C(F)(F)F)ccc2O1 [VI-20] |
| < 15 µM | O=C(Nc1ccc2c(c1)N(S(=O)(=O)c1ccc(Cl)cc1)C[C@@H](CO)O2)c1c(F)cccc1Cl [VI-54] |
| < 15 µM | O=C(Cc1ccc(F)cc1)Nc1ccc2c(c1)N(S(=O)(=O)c1ccc(F)c(F)c1)C[C@@H](CO)O2 [VI-74] |
| < 15 µM | CCNCC1CN(S(=O)(=O)c2ccc(F)cc2)c2cc(NC(=O)c3c(F)cccc3Cl)ccc2O1 (stereo not shown) [VI-34] |
| < 15 µM | O=C(Nc1ccc2c(c1)N(S(=O)(=O)c1ccc(F)cc1)CC(C(F)(F)F)O2)c1c(F)cccc1Cl (stereo not shown) [VI-117] |
| < 15 µM | N#Cc1cccc(S(=O)(=O)N2C[C@H](CO)Oc3ccc(NC(=O)Cc4ccc(F)cc4)cc32)c1 [VI-64] |
| < 15 µM | N#Cc1cccc(S(=O)(=O)N2C[C@@H](CO)Oc3ccc(NC(=O)Cc4ccc(F)cc4)cc32)c1 [VI-58] |
| < 15 µM | C[C@H]1CN(S(=O)(=O)c2ccc(F)cc2)c2cc(NC(=O)C3(c4ccc(Cl)cc4)CCCC3)ccc2O1 [VI-132] |
| < 15 µM | O=C(Cc1ccc(Cl)cc1)Nc1ccc2c(c1)N(S(=O)(=O)c1ccc(F)cc1)C[C@H](CO)O2 [VI-77] |
